According to article PMC12298883, “Discovery of Cyclopentane-Based Phospholipids as Miltefosine Analogs with Superior Potency and Enhanced Selectivity Against Naegleria fowleri” (Pharmaceuticals, 2025):
Like-named read-outs stand apart in the source and are kept apart here.

How the values were obtained:
Assay type in all cases: cell-based, Naegleria fowleri
[1] = test system: N. fowleri trophozoites; assay: Anti-amoebic viability assay (CellTiter-Blue) with microscopic observation; conditions: for Selectivity Index: CC50 of C6 glial cell divided by IC50 of inhibition of N. fowleri; for IC50 / IC90: 48 h, N. fowleri trophozoites, viability; for IC50: mean ± SD of three assays, read-out: IC50 of Inhibition of N. fowleri; for IC90: mean ± SD; for morphological changes of N. fowleri (microscopy): treated trophozoites versus 0.1% DMSO negative control; for Relative Potency to Miltefosine: IC50 of miltefosine divided by IC50 of compound, N. fowleri
Protocol: A viability assay was performed to evaluate the inhibitory activity of the tested compounds by determining their IC50 values against N. fowleri, using miltefosine as a reference drug. To assess the selectivity of the tested compounds relative to miltefosine, cytotoxic values that reduced the viability of C6 glial cells by 50% were established.
N. fowleri Carter NF69 strain (ATCC 30215; American Type Culture Collection, Manassas, VA, USA) was used. Amoeba trophozoites were cultured and maintained in Nelson’s medium containing 5% foetal bovine serum (FBS; Gibco, Grand Island, NY, USA) and 1% penicillin/streptomycin (P/S; Gibco, Grand Island, NY, USA) at 37 °C [56]. C6 rat glial cells (C6 cells; ATCC CCL-107) were cultured in Dulbecco’s Modified Eagle’s Medium (DMEM; Gibco, Grand Island, NY, USA) supplemented with 10% FBS (Gibco, Grand Island, NY, USA) and 1% P/S (Gibco, Grand Island, NY, USA) at 37 °C in a humidified incubator under 5% CO2 atmosphere.
N. fowleri trophozoites (5 × 10^4 cells/well) were seeded in a 96-well microplate (Thermo Fisher Scientific, Waltham, MA, USA) in Nelson’s medium and incubated at 37 °C overnight. N. fowleri trophozoites were treated with 2-fold serial dilutions of tested compounds (from 0 to 200 µM) or miltefosine (150 µM) and incubated at 37 °C for 48 h. The viability of the amoebae was determined using the CellTiter-Blue® Cell viability assay (Promega, Madison, WI, USA). Inhibitory concentration 50 (IC50) and IC90 were calculated by the nonlinear regression method using GraphPad Prism 9.1.0 software (GraphPad Software, San Diego, CA, USA). Amoebae treated with 0.1% DMSO were used as a control, representing 100% cell viability. Morphological changes of the amoebae were observed microscopically.

[2] = test system: N. fowleri trophozoites; assay: Apoptosis/necrosis fluorescence staining assay; conditions: at IC90, 48 h; apopxin green, 7-AAD red, cytocalcein blue
Excerpt: While apoptosis was previously believed to occur in multicellular metazoans, it was discovered that ancient forms of apoptotic-like cell death, which mimics some characteristics of apoptosis, can also trigger death in protozoa. In fact, apoptosis-like death is one of the programmed cell death molecular mechanisms in protozoa that also include necrosis. To further understand how compounds 2a, 3b and 3d trigger the death of N. fowleri in comparison to miltefosine, an evaluation of apoptosis and necrosis was conducted at IC90 of the tested compounds for 48 h. […] The diminished cytocalceine blue fluorescence, coupled with the surge in green fluorescence signifying apoptosis after treatment with the compounds (Figure 5), clearly indicates the reduction in viable cells and the initiation of programmed cell death. The absence of 7-AAD red fluorescence further reinforces the lack of detectable necrosis. This is a desirable trait for potential therapeutic agents, as necrosis, unlike apoptosis, can trigger inflammation due to the uncontrolled release of intracellular contents.
Figure 5 Apoptosis/necrosis assay. A fluorescence staining assay was performed using N. fowleri trophozoites treated with compounds 2a, 3b, 3d, and miltefosine (MF) as a reference; NC, negative controls with 0.1% DMSO treatment. Blue fluorescence representing living cells stained with cytocalcein (DAPI channel, Ex/Em = 405/450 nm). Green apopxin stains apoptotic cells to show green fluorescence (GFP channel, Ex/Em = 490/525 nm). 7-Amino Actinomycin D (7-AAD) stains late apoptotic cells and necrotic cells to show red fluorescence (RFP channel, Ex/Em = 550/650 nm). Images were representatives of cell populations in three individual experiments. Size bar: 10 µm.
Apoptosis/necrosis in treated N. fowleri trophozoites was assessed using the Apoptosis/Necrosis Detection Kit (Abcam, Cambridge, UK). N. fowleri trophozoites (5 × 10^4 cells/well) were seeded in a 96-well black/clear bottom plate (Thermo Fisher Scientific). Compounds 2a, 3b and 3d were treated to the cells at the concentrations of IC90 and incubated at 37 °C for 48 h. The apoptosis/necrosis assay was performed as described previously. Amoebae treated with 0.1% DMSO and miltefosine (IC90) were used as the negative controls (NC) and the positive controls, respectively.

[3] = test system: N. fowleri trophozoites; assay: TUNEL assay (DNA fragmentation); conditions: at IC90, 48 h; PI counterstain
Protocol: To further confirm the apoptotic mode of cell death induced by compounds 2a, 3b and 3d in N. fowleri, a TUNEL assay was conducted. This assay detects DNA fragmentation, a hallmark of apoptosis, by incorporating fluorescent dUTP at DNA break sites. […] This difference could reflect variations in the specific molecular pathways targeted by each compound or differences in their cellular uptake or metabolism.
Figure 6 TUNEL assay. DNA fragmentation implying apoptosis was detected by TUNEL (GFP channel, (Ex/Em = 490/525 nm) in the amoebae treated with tested compounds. These amoebae were also counterstained with PI (RFP channel, Ex/Em = 550/650 nm). Miltefosine (MF) was included as a positive reference control. NC, negative controls with 0.1% DMSO treatment. Images were representatives of the cell population in three individual experiments. Size bar: 10 µm.
N. fowleri trophozoites (2 × 10^6 cells/well) were seeded in a 6-well plate (Thermo Fisher Scientific), treated with compounds 2a, 3b or 3d (IC90) and incubated at 37 °C for 48 h. The TUNEL assay was performed by using TUNEL Fluorescein Isothiocyanate (FITC) Assay Kit (Abcam, Cambridge, UK) as described previously. N. fowleri trophozoites treated with 0.01% DMSO was used as an NC. The amoeba treated with miltefosine (IC90) were used as a positive control.

SMILES	Selectivity Index [1]	IC50 ([1]; Naegleria fowleri)	IC90 ([1]; Naegleria fowleri)	morphological changes of N. fowleri (microscopy) [1]	mode of cell death (apoptosis/necrosis staining) [2]	DNA fragmentation (TUNEL green fluorescence) [3]	Relative Potency to Miltefosine [1]	fold the potency of trans-configured behenyl derivative 2d ([1]; N. fowleri IC50 ratio versus compound 2d)	IC50 [1]
CCCCCCCCCCCCCO[C@@H]1CCC[C@H]1COP(=O)([O-])OCC[N+](C)(C)C [Compound 2a]	7.53	42 ± 1.32 µM	109 µM	dose-dependent morphological changes	apoptosis-like death, rather than necrosis	intense green fluorescence, confirming DNA fragmentation			
CCCCCCCCCCCCCOC[C@@H]1CCC[C@H]1OP(=O)([O-])OCC[N+](C)(C)C [Compound 3b]	3.90	40.9 ± 1.9 µM	104 µM	dose-dependent morphological changes	apoptosis-like death, rather than necrosis	intense green fluorescence, confirming DNA fragmentation			
CCCCCCCCCCCCCCCCCCCCCCOC[C@@H]1CCC[C@H]1OP(=O)([O-])OCC[N+](C)(C)C [Compound 3d]	3.49	24.3 ± 1.1 µM	187 µM	dose-dependent morphological changes	apoptosis-like death, rather than necrosis	intense green fluorescence, confirming DNA fragmentation	6.03 fold	2.29 fold	
CCCCCCCCCCCCCCCCOP(=O)([O-])OCC[N+](C)(C)C [Miltefosine]	~1.08	146.44 ± 0.12 µM	> 200 µM		apoptosis-like death, rather than necrosis	intense green fluorescence, confirming DNA fragmentation	1.00 fold		146.53 ± 0.12 µM
